Drawing on ChEMBL document CHEMBL5725316, “Substituted imidazo[1,2-a]pyrazines as LSD1 inhibitors” (2017), this text covers IC50 for one compound.

Molecules are shown by their SMILES.

For the assay, the target named is Lysine-specific histone demethylase 1A (Homo sapiens, UniProt O60341). Kind of assay: LANCE LSD1/KDM1A Demethylase Assay: 10 μL of 1 nM LSD-1 enzyme (ENZO BML-SE544-0050) in the assay buffer (50 mM Tris, pH 7.5, 0.01% Tween-20, 25 mM NaCl, 5 mM DTT) were preincubated for 1 hour at 25° C. with 0.8 μL compound/DMSO dotted in black 384 well polystyrene plates. Reactions were started by addition of 10 μL of assay buffer containing […] Biotin-labeled Histone H3 peptide substrate: ART-K(Me1)-QTARKSTGGKAPRKQLA-GGK(Biotin) SEQ ID NO:1 (AnaSpec 64355) and incubated for 1 hour at 25° C. Reactions were stopped by addition of 10 μL 1× LANCE Detection Buffer (PerkinElmer CR97-100) supplemented with 1.5 nM Eu-anti-unmodified H3K4 Antibody (PerkinElmer TRF0404), and 225 nM LANCE Ultra Streptavidin (PerkinElmer TRF102) along with 0.9 mM Tranylcypromine-HCl (Millipore 616431). After stopping the reactions plates were incubated for 30 minutes and read on a PHERAstar FS plate reader (BMG Labtech).

By IC50 is commonly meant the point on the concentration scale where inhibition reaches its midpoint. Low readings indicate inhibition by little substance, high ones a need for much substance. For `COC(=O)N(C)c1cc(-c2c(-c3ccc(C#N)cc3)nc(OC[C@@H]3CCCN(C)C3)c3nccn23)ccc1C`, the IC50 was < 0.05 µM.
